Results on eight compounds are retold here after US20250188092A1, “RIFAMYCIN ANALOGS” (THE REGENTS OF THE UNIVERSITY OF MICHIGAN, priority 2021, published 2025).

In one data set the test system is DPX2 cells. Conditions: for DPX2 Viability @ 6.25 μM: 24 h; for DPX2 Viability @ 25 μM: human.
Another data set deals with M. tuberculosis H37Rv. Kind of data set: Minimum bactericidal concentration (MBC, CFU Assay). Type of data set: cell-based, Mycobacterium tuberculosis. Conditions: for MBC99 Day 7 (CFU Assay) MBC99 Rel to RMP: CFU Assay MBC99 relative to rifampin (RMP = 1); for MBC: Mycobacterium tuberculosis, 168 h, Day 7, M. tuberculosis H37Rv, ≥99% reduction in colony forming units, read-out: MBC99 Day 7 (CFU Assay) MBC99.

A further data set relates to VERO cells (ATCC CRL-81). Nature of the data set: Vero cell toxicity. Conditions: Chlorocebus sabaeus, Vero; 72 hours exposure. Type of data set: cell-based. The protocol:
Cytotoxicity for a mammalian cell line was determined by exposing VERO cells (ATCC CRL-81) to serial dilutions of test compounds for 72 hours, followed by addition of resazurin and measurement of fluorescence after 4 hours incubation (Choules, et al., Antimnicrob. Agents Chemother. 2019, 63, e02204-02218).

For another data set, the system named is MTB H37Rv ATCC 27294. Nature of the data set: MIC, microplate Alamar Blue assay (MABA). In kind it is cell-based, Mycobacterium tuberculosis. Particulars: for MIC / MIC90: Mycobacterium tuberculosis, MTB H37Rv ATCC 27294, microplate Alamar Blue assay, lowest concentration giving ≥90% reduction in fluorescence; for MIC: read-out: MIC90 MABA.

In brackets after ≈: the same amount, converted by molar mass.

`CO[C@H]1/C=C/O[C@@]2(C)Oc3c(C)c(O)c4c(=O)c(c5oc6cccc(OCc7cccc(CN8CCN(C(=O)Cn9ccnc9)CC8)c7)c6nc-5c4c3C2=O)NC(=O)/C(C)=C\C=C\[C@H](C)[C@H](O)[C@@H](C)[C@@H](O)[C@@H](C)[C@H](OC(C)=O)[C@@H]1C` [Compound 11e, (7S,9E,11S,12R,13S,14R,15R,16R,17S,18S,19E,21Z)-2,15,17-Trihydroxy-32-{[3-({4-[2-(1H-imidazol-1-yl)acetyl]piperazin-1-yl}methyl)phenyl]methoxy}-11-methoxy-3,7,12,14,16,18,22-heptamethyl-6,23,37-trioxo-8,27,38-trioxa-24,34-diazahexacyclo[23.11.1.1^4,7.0^5,36.0^26,35.0^28,33]octatriaconta-1(36)2,4,9,19,21,25,28,30,32,34-undecaen-13-yl acetate]: in the data set with DPX2 cells, the “DPX2 Viability @ 6.25 μM” value is recorded as 105% and the “DPX2 Viability @ 25 μM” value came out at 96%. For the same compound, in the data set with M. tuberculosis H37Rv, the “MBC99 Day 7 (CFU Assay) MBC99 Rel to RMP” value is reported as 0.15 and the MBC was determined as 0.02 µM. Besides, in the data set on VERO cells (ATCC CRL-81), the IC50 is over 8 µM. Moreover, in the data set with MTB H37Rv ATCC 27294, the “MIC90 MABA Rel to RMP” value was 0.93 and the MIC was 0.048 µM.
For `CO[C@H]1/C=C/O[C@@]2(C)Oc3c(C)c(O)c4c(=O)c(c5oc6cc(N7CCN(CC(C)C)CC7)cc(OCc7ccc(CN8CCNCC8)cc7)c6nc-5c4c3C2=O)NC(=O)/C(C)=C\C=C\[C@H](C)[C@H](O)[C@@H](C)[C@@H](O)[C@@H](C)[C@H](OC(C)=O)[C@@H]1C` [Compound 17b, (7S,9E,11S,12R,13S,14R,15R,16R,17S,18S,19E,21Z)-2,15,17-Trihydroxy-11-methoxy-3,7,12,14,16,18,22-heptamethyl-30-[4-(2-methylpropyl)piperazin-1-yl]-6,23,37-trioxo-32-({4-[(piperazin-1-yl)methyl]phenyl}methoxy)-8,27,38-trioxa-24,34-diazahexacyclo[23.11.1.1^4,7.0^5,36.0^26,35.0^28,33]octatriaconta-1(36)2,4,9,19,21,25,28,30,32,34-undecaen-13-yl acetate], in the data set with DPX2 cells, the “DPX2 Viability @ 6.25 μM” value amounted to 109% and the “DPX2 Viability @ 25 μM” value stood at 45%. For the same compound, in the data set with M. tuberculosis H37Rv, the “MBC better than that of rifampin” value is about 5 fold, the “MBC99 Day 7 (CFU Assay) MBC99 Rel to RMP” value is 0.15 and the MBC came out at 0.02 µM. For the same compound, the IC50 in the data set on VERO cells (ATCC CRL-81) turned out to be 7.9 µM. Moreover, in the data set on MTB H37Rv ATCC 27294, the “MIC90 MABA Rel to RMP” value is 0.24 and the MIC is under 0.016 µM.
With `CO[C@H]1/C=C/O[C@@]2(C)Oc3c(C)c(O)c4c(=O)c(c5oc6cc(N7CCN(C(=O)c8cccc(-n9ccnc9)c8)CC7)cc(C)c6nc-5c4c3C2=O)NC(=O)/C(C)=C\C=C\[C@H](C)[C@H](O)[C@@H](C)[C@@H](O)[C@@H](C)[C@H](OC(C)=O)[C@@H]1C` [Compound 29a, (7S,9E,11S,12R,13S,14R,15R,16R,17S,18S,19E,21Z)-2,15,17-Trihydroxy-30-{4-[3-(1H-imidazol-1-yl)benzoyl]piperazin-1-yl}-11-methoxy-3,7,12,14,16,18,22,32-octamethyl-6,23,37-trioxo-8,27,38-trioxa-24,34-diazahexacyclo[23.11.1.1^4,7.0^5,36.0^26,35.0^28,33]octatriaconta-1(36)2,4,9,19,21,25,28,30,32,34-undecaen-13-yl acetate], the “DPX2 Viability @ 25 μM” value with DPX2 cells is 149%. Also, in the data set with M. tuberculosis H37Rv, the “MBC99 Day 7 (CFU Assay) MBC99 Rel to RMP” value was determined as 0.15 and the MBC turned out to be 0.02 µM. This compound also registered an IC50 in the data set on VERO cells (ATCC CRL-81) of over 10 µM. In addition, in the data set with MTB H37Rv ATCC 27294, the “MIC90 MABA Rel to RMP” value turned out to be 1.33 and the MIC90 was found to be 0.036 µM.
Take `CO[C@H]1/C=C/O[C@@]2(C)Oc3c(C)c(O)c4c(=O)c(c5oc6cc(N7CCC(C(=O)O)CC7)cc(C)c6nc-5c4c3C2=O)NC(=O)/C(C)=C\C=C\[C@H](C)[C@H](O)[C@@H](C)[C@@H](O)[C@@H](C)[C@H](OC(C)=O)[C@@H]1C` [Compound 29f, 1-[(7S,9E,11S,12R,13S,14R,15R,16R,17S,18S,19E,21Z)-13-(acetyloxy)-2,15,17-trihydroxy-11-methoxy-3,7,12,14,16,18,22,32-octamethyl-6,23,37-trioxo-8,27,38-trioxa-24,34-diazahexacyclo-[23.11.1.1^4,7.0^5,36.0^26,35.0^28,33]octatriaconta-1,3,5(36)9,19,21,25,28,30,32,34-undecaen-30-yl]piperidine-4-carboxylic acid]: in the data set with DPX2 cells, the “DPX2 Viability @ 6.25 μM” value is 126% and the “DPX2 Viability @ 25 μM” value is 131%. This compound also gave an IC50 in the data set on VERO cells (ATCC CRL-81) of over 10 µM. In the data set with MTB H37Rv ATCC 27294, the “MIC90 MABA Rel to RMP” value is on record as 8.9 and the MIC90 came out at 0.238 µM (≈ 0.22 µg/mL).
With `CO[C@H]1/C=C/O[C@@]2(C)Oc3c(C)c(O)c4c(=O)c(c5oc6cc(N7CCC(CC(=O)O)CC7)cc(C)c6nc-5c4c3C2=O)NC(=O)/C(C)=C\C=C\[C@H](C)[C@H](O)[C@@H](C)[C@@H](O)[C@@H](C)[C@H](OC(C)=O)[C@@H]1C` [Compound 29g, 2-{4-[(7S,9E,11S,12R,13S,14R,15R,16R,17S,18S,19E,21Z)-13-(acetyloxy)-2,15,17-trihydroxy-11-methoxy-3,7,12,14,16,18,22,32-octamethyl-6,23,37-trioxo-8,27,38-trioxa-24,34-diazahexacyclo[23.11.1.1^4,7.0^5,36.0^26,35.0^28,33]octatriaconta-1,3,5(36)9,19,21,25,28,30,32,34-undecaen-30-yl]piperidin-4-yl}acetic acid], in the data set with DPX2 cells, the “DPX2 Viability @ 6.25 μM” value was 100% and the “DPX2 Viability @ 25 μM” value was 101%. This compound displayed an IC50 in the data set with VERO cells (ATCC CRL-81) of over 10 µM. Moreover, in the data set with MTB H37Rv ATCC 27294, the “MIC90 MABA Rel to RMP” value was 1.9 and the MIC90 was determined as 0.051 µM (≈ 0.0479 µg/mL).
For `CO[C@H]1/C=C/O[C@@]2(C)Oc3c(C)c(O)c4c(=O)c(c5oc6cc(N7CCN(CC(=O)O)CC7)cc(C)c6nc-5c4c3C2=O)NC(=O)/C(C)=C\C=C\[C@H](C)[C@H](O)[C@@H](C)[C@@H](O)[C@@H](C)[C@H](OC(C)=O)[C@@H]1C` [Compound 29h, 2-{4-[(7S,9E,11S,12R,13S,14R,15R,16R,17S,18S,19E,21Z)-13-(acetyloxy)-2,15,17-trihydroxy-11-methoxy-3,7,12,14,16,18,22,32-octamethyl-6,23,37-trioxo-8,27,38-trioxa-24,34-diazahexacyclo[23.11.1.1^4,7.0^5,36.0^26,35.0^28,33]octatriaconta-1,3,5(36)9,19,21,25,28,30,32,34-undecaen-30-yl]piperazin-1-yl}acetic acid], in the data set with DPX2 cells, the “DPX2 Viability @ 6.25 μM” value is 109% and the “DPX2 Viability @ 25 μM” value turned out to be 98%. Moreover, the IC50 in the data set on VERO cells (ATCC CRL-81) is over 10 µM. Further, in the data set with MTB H37Rv ATCC 27294, the “MIC90 MABA Rel to RMP” value stood at 0.69 and the MIC90 came to 0.018 µM (≈ 0.0169 µg/mL).
On to `CO[C@H]1/C=C/O[C@@]2(C)Oc3c(C)c(O)c4c(=O)c(c5oc6cc(C)cc(N7CCN(CCn8ccnc8)CC7)c6nc-5c4c3C2=O)NC(=O)/C(C)=C\C=C\[C@H](C)[C@H](O)[C@@H](C)[C@@H](O)[C@@H](C)[C@H](OC(C)=O)[C@@H]1C` [Compound 30e, (7S,9E,11S,12R,13S,14R,15R,16R,17S,18S,19E,21Z)-2,15,17-Trihydroxy-32-{4-[3-(1H-imidazol-1-yl)ethyl]piperazin-1-yl}-11-methoxy-3,7,12,14,16,18,22,30-octamethyl-6,23,37-trioxo-8,27,38-trioxa-24,34-diazahexacyclo[23.11.1.1^4,7.0^5,36.0^26,35.0^28,33]octatriaconta-1(36)2,4,9,19,21,25,28,30,32,34-undecaen-13-yl acetate], for which, in the data set with DPX2 cells, the “DPX2 Viability @ 6.25 μM” value came out at 130% and the “DPX2 Viability @ 25 μM” value is on record as 119%. Also, the IC50 in the data set on VERO cells (ATCC CRL-81) was over 10 µM. In addition, in the data set with MTB H37Rv ATCC 27294, the “MIC90 MABA Rel to RMP” value is reported as 3.11 and the MIC90 is 0.084 µM.
On to `CO[C@H]1/C=C/O[C@@]2(C)Oc3c(C)c(O)c4c(=O)c(c5oc6cc(C)cc(N7CCN(C(=O)c8cccc(-n9ccnc9)c8)CC7)c6nc-5c4c3C2=O)NC(=O)/C(C)=C\C=C\[C@H](C)[C@H](O)[C@@H](C)[C@@H](O)[C@@H](C)[C@H](OC(C)=O)[C@@H]1C` [Compound 30f, (7S,9E,11S,12R,13S,14R,15R,16R,17S,18S,19E,21Z)-2,15,17-Trihydroxy-32-{4-[3-(1H-imidazol-1-yl)benzoyl]piperazin-1-yl}-11-methoxy-3,7,12,14,16,18,22,30-octamethyl-6,23,37-trioxo-8,27,38-trioxa-24,34-diazahexacyclo[23.11.1.1^4,7.0^5,36.0^26,35.0^28,33]octatriaconta-1(36)2,4,9,19,21,25,28,30,32,34-undecaen-13-yl acetate], for which, in the data set on DPX2 cells, the “DPX2 Viability @ 6.25 μM” value is on record as 98% and the “DPX2 Viability @ 25 μM” value came to 64%. For the same compound, the IC50 in the data set on VERO cells (ATCC CRL-81) is over 10 µM. For the same compound, in the data set on MTB H37Rv ATCC 27294, the “MIC90 MABA Rel to RMP” value was 1.63 and the MIC90 was found to be 0.044 µM.
